In patent US9783519B2, “Palladium/silver co-catalyzed tandem reactions synthesis of phenylacetophenone derivatives by oxabenzonorbornadienes with terminal alkynes and their anti-tumor or anti-cancer activities” (Hong Kong Baptist University, priority 2015, dated 2017):
Like-named read-outs stand apart in the source and are kept apart here.

Tests used:
[1] = test system: DLD-1 (human colorectal carcinoma cell line); assay: MTT cytotoxicity assay, DLD-1; format: cell-based; details: 48 hrs treatment
Experimental: (§1) Cytotoxic activities of all compounds were evaluated by MTT assay using KYSE-150 (human oesophagus carcinoma), MKN-45 (human gastric aednocarcinoma), DLD-1 (human colorectal carcinoma cell line), Hep G2 (human hepatocellular carcinoma). […] 3ag, 3al, 3an, 3ea and 3ha also have the same inhibitory effect on different cell lines with IC50 value lower than 10 μM. Thus, except 3ac, 3ad, 3ae, 3ah, and 3ab, the other compounds all exert definitely anti-cancer effect.
(§2) In this study, all compounds were dissolved in dimethyl sulfoxide (DMSO) to make stock solutions and further diluted in culture medium for this experiment. Human cancer cell lines, including one gastric adenocarcinoma cell line (MKN-45), one colon carcinoma cell line (DLD-1), one esophageal carcinoma cell line (KYSE-150) and one hepatocellular carcinoma cell line (HepG2) were cultured in RPMI 1640 or DMEM medium, containing 10% fetal bovine serum and 1% antibiotics (Penicillin and strep). The cell lines were cultured at 37° C. in a humidified environment containing 5% CO2. To determine the effects of the compounds on cell viability, a standard colorimetric 3-(4,5-dimethylthiazol-2-yl)-2,5-diphenyltetrazolium bromide (MTT) assay was used to test the cell number. Cells were seeded in a 96-well plate (4×10^3 cells/well) and allowed to attach overnight. After the recovery, cells were treated with 1.56, 3.125, 6.25, 12.5, 25, 50 μM of compounds in culture medium for 48 hrs. Then, 20 μL of MTT (5 mg/mL stock in PBS) per well was added into the medium (200 μL) and incubated for 4 hrs at 37° C. Finally, the culture medium was removed and 200 μL of DMSO were added to dissolve the purple formazan crystals. Absorbance of the solution was measured using microplate reader spectrophotometer (Bio-Rad Laboratories, Inc., Hercules, Calif.) at a wavelength of 570 nm.

[2] = test system: MKN-45 (human gastric aednocarcinoma); assay: MTT cytotoxicity assay, MKN-45; format: cell-based; details: 48 hrs treatment
Experimental: as §1, §2

[3] = test system: Hep G2 (human hepatocellular carcinoma); assay: MTT cytotoxicity assay, Hep G2; format: cell-based; details: HepG2, 48 hrs treatment
Experimental: as §1, §2

[4] = test system: KYSE-150 (human oesophagus carcinoma); assay: MTT cytotoxicity assay, KYSE-150; format: cell-based; details: 48 hrs treatment
Experimental: as §1, §2

[5] = test system: KYSE-150, MKN-45, DLD-1, Hep G2; assay: MTT cytotoxicity assay, summary over the test cell lines; format: cell-based; details: Homo sapiens, summary of Table 6
Experimental: as §1, §2

KYSE-150 cells [6] = assay: Wound healing assay; format: cell-based, human; details: 48 h
Experimental: Original magnification, 5×.
Further, wound-healing assay was used to test whether those novel compounds could affect cell motility.
A wound-healing assay was performed as follows: cells were seeded in 12 wells plate at 50% confluence in completed medium. After 24 hrs seeding, the monolayer was wounded by scoring with a sterile plastic tip (1 mL), then washed several times with medium to remove cell debris and then incubated in conditioned medium in the absence or presence of tested compounds for various periods of time up to 48 h. […] Cell migration into the wound surface was monitored by Olympus IX71 microscopy and digitally photographed.

KYSE-150 cells [7] = assay: Wound healing assay; format: cell-based, human
[8] = on different (not all) cell lines, read-out: IC50, inhibitory effect on different cell lines
[9] = all test cell lines, read-out: IC50, cell growth-inhibiting effect against all test cell lines (below or near)

Compound	melting point [°C]	IC50 [1] [µM]	IC50 [2] [µM]	IC50 [3] [µM]	IC50 [4] [µM]	IC50 [5, 8] [µM]	cell migration into the wound (KYSE-150 cells [6]; 10 μM)	viability of KYSE-150 cells compared to controls (KYSE-150 cells [7]; 10 μM)	IC50 [5, 9] [µM]	cell migration into the wound (KYSE-150 cells [6]; 5 μM)	viability of KYSE-150 cells compared to controls (KYSE-150 cells [7]; 5 μM)
COc1cc(OC)cc(C(=O)Cc2ccc3ccccc3c2)c1 [Compound 3ae, 1-(3,5-dimethoxyphenyl)-2-(naphthalen-2-yl) ethanone]	70 to 71	> 50	> 50	42.8	> 50	–	–	–	–	–	–
O=C(Cc1ccc2ccccc2c1)c1ccc(CO)cc1 [Compound 3ak, 1-(4-(hydroxymethyl)phenyl)-2-(naphthalen-2-yl) ethanone]	97 to 98	48.2	> 50	> 50	31.3	–	–	–	–	–	–
O=C(Cc1ccc2ccccc2c1)c1ccc(C(F)(F)F)cc1 [Compound 3al, 2-(naphthalen-2-yl)-1-(4-(trifluoromethyl)phenyl) ethanone]	179 to 181	37.4	> 50	29.9	4.75	< 10	–	–	–	–	–
COc1cccc(C(=O)Cc2ccc3ccccc3c2)c1 [Compound 3ad, 1-(3-methoxyphenyl)-2-(naphthalen-2-yl) ethanone]	102 to 103	> 50	> 50	> 50	> 50	–	–	–	–	–	–
COc1ccccc1C(=O)Cc1ccc2ccccc2c1 [Compound 3ac, 1-(2-methoxyphenyl)-2-(naphthalen-2-yl) ethanone]	100 to 102	> 50	> 50	> 50	> 50	–	–	–	–	–	–
O=C(Cc1ccc2cc(Br)c(Br)cc2c1)c1ccccc1 [Compound 3ea, 2-(6,7-dibromonaphthalen-2-yl)-1-phenylethanone]	152 to 154	2.7	12.1	16.1	2.38	< 10	did not migrate into the wound	did not alter the viability	–	–	–
Cc1ccc(C)c2cc(CC(=O)c3ccccc3)ccc12 [Compound 3ca, 2-(5,8-dimethylnaphthalen-2-yl)-1-phenylethanone]	123 to 124	> 50	> 50	> 50	19.2	–	–	–	–	–	–
COc1ccc(OC)c2cc(CC(=O)c3ccccc3)ccc12 [Compound 3ba, 2-(5,8-dimethoxynaphthalen-2-yl)-1-phenylethanone]	145 to 146	> 50	> 50	> 50	> 50	–	–	–	–	–	–
Cc1cc2ccc(CC(=O)c3ccccc3)cc2cc1C [Compound 3da, 2-(6,7-dimethylnaphthalen-2-yl)-1-phenylethanone]	142 to 144	0.78	3.71	> 50	7.69	–	–	–	–	did not migrate into the wound	did not alter the viability
C(#Cc1ccc2cc3c(cc2c1)OCO3)c1ccccc1 [Compound 3ha, 6-(phenylethynyl) naphtho [2,3-d][1,3] dioxole]	154 to 155	0.55	20.8	0.65	3.52	< 10	–	–	–	–	–
C(#Cc1ccc2cc3c(cc2c1)OCCO3)c1ccccc1 [Compound 3ga, 7-(phenylethynyl)-2,3-dihydronaphtho [2,3-b][1,4] dioxine]	130 to 132	19.7	35.1	45.2	24.7	–	did not migrate into the wound	did not alter the viability	–	–	–

The next lines start with results.

melting point [°C]	Compound	IC50 [1] [µM]	IC50 [2] [µM]	IC50 [3] [µM]	IC50 [4] [µM]	IC50 [5, 8] [µM]	cell migration into the wound (KYSE-150 cells [6]; 10 μM)	viability of KYSE-150 cells compared to controls (KYSE-150 cells [7]; 10 μM)	IC50 [5, 9] [µM]	cell migration into the wound (KYSE-150 cells [6]; 5 μM)	viability of KYSE-150 cells compared to controls (KYSE-150 cells [7]; 5 μM)
152 to 154	N#Cc1ccc(C(=O)Cc2ccc3ccccc3c2)cc1 [Compound 3am, 4-(2-(naphthalen-2-yl)acetyl) benzonitrile]	> 50	> 50	> 50	33.5	–	–	–	–	–	–
129 to 130	[2H]C(C(=O)c1ccccc1)c1ccc2ccccc2c1 (stereo not drawn) [Compound 3an, 2-(naphthalen-2-yl)-1-phenylethanone-2-D]	> 50	43.1	22	7.43	< 10	did not migrate into the wound	did not alter the viability	–	–	–
122 to 124	O=C(Cc1ccc2ccccc2c1)c1ccccc1 [Compound 3aa, 2-(naphthalen-2-yl)-1-phenylethanone]	12.4	15.6	20.8	10.9	–	did not migrate into the wound	did not alter the viability	–	–	–
125 to 127	COc1ccc(C(=O)Cc2ccc3ccccc3c2)cc1 [Compound 3ab, 1-(4-methoxyphenyl)-2-(naphthalen-2-yl) ethanone]	7.89	10.1	7.63	5.19	–	did not migrate into the wound	did not alter the viability	~10	–	–
157 to 159	O=C(Cc1ccc2ccccc2c1)c1ccc(Br)cc1 [Compound 3ai, 1-(4-bromophenyl)-2-(naphthalen-2-yl) ethanone]	3.3	4.45	1.32	2.02	–	–	–	~10	–	–
139 to 141	O=C(Cc1ccc2ccccc2c1)c1ccc(Oc2ccccc2)cc1 [Compound 3ag, 2-(naphthalen-2-yl)-1-(4-phenoxyphenyl) ethanone]	4.95	> 50	4.84	1.19	< 10	–	–	–	–	–
144 to 146	Cc1ccc(C(=O)Cc2ccc3ccccc3c2)cc1 [Compound 3aj, 2-(naphthalen-2-yl)-1-(p-tolyl) ethanone]	> 50	12	> 50	18.4	–	–	–	–	–	–
153 to 154	O=C(Cc1ccc2ccccc2c1)c1ccc(OC(F)(F)F)cc1 [Compound 3ah, 2-(naphthalen-2-yl)-1-(4-(trifluoromethoxy)phenyl) ethanone]	> 50	> 50	> 50	> 50	–	–	–	–	–	–
145 to 147	O=C(Cc1ccc2ccccc2c1)c1ccc(F)cc1 [Compound 3af, 1-(4-fluorophenyl)-2-(naphthalen-2-yl) ethanone]	5.27	4.04	4.23	2.56	–	–	–	~10	–	–
